Assay results taken from EP0791056B1, “LIPID-CLEAVAGE ENZYME COMPLEX” (priority 1994, dated 1996).

What was measured:
[1] = system: CEM-SS-Zellen; test: Enzymatic cleavage of [14C]-AZT-DMDOPE by cell homogenates, TLC of metabolites; assay type: in vitro ADME; conditions: Zellhomogenate von CEM-SS-Zellen
Method: (§1) Die Spaltung von AZT-DMDOPE wurde mit Hilfe eines Enzym-Assays mit [^14C]-AZT-DMDOPE und AZT-DMDOPE als Substrat untersucht. Als Enzymquelle wurden zunächst Zellhomogenate von CEM-SS-Zellen und humanen PBL verwendet. Tab.
(§2) Zur Herstellung der Zellhomogenate wurden Zellsuspensionen mit einer Dichte von 5 x10^7 Zellen/ml 50 mM Tris (pH 7.4) im Glashomogenisator mechanisch aufgeschlossen. Der Zellaufschluß wurde hierbei im Umkehr-Phasenkontrast-Mikroskop optisch kontrolliert. Tab.
(§3) Zunächst wurde 1 ml dieses Zellhomogenales in dem Enzym-Assay ohne vorherige Bestimmung der Proteinkonzentration eingesetzt.
(§4) Zur Gewährleistung einer Substratsättigung wurden weitere 50 nmol der nichtradioaktiv markierten Verbindung hinzugefügt. [^14C]-AZT-DMDOPE trägt die radioaktive Markierung im Thioetherlipidteil und erlaubt somit eine eindeutige Identifikation der potentiellen Metabolits [^14-C]DMDOP.
Die Ansätze wurden für 1, 3, 6 und 24 h im Wasserbad bei 37 °C inkubiert. Als Vergleich wurde ein Ansatz ohne Zugabe von Zellhomogenat mitgeführt. Anschließend wurden die Spaltprodukte mit Diethylether:2-Propanol (9:1, v/v) extrahiert und dünnschichtchromatographisch im IBA- und IBAE-System analysiert (Abb. 18). Nach Trennung der Substanzen wurde zur Detektion der radioaktiv markierten Substanzen die DC-Platte 15 min im Radio-DC-Analysator gemessen. […]

[2] = system: P3X63Ag8.653-Zellen; test: Intracellular concentrations of AZT and AZT nucleotides (radioimmunoassay) in thymidine kinase deficient cells; assay type: in vitro ADME; conditions: for maximale Konzentrationen an AZT und AZT-Nukleotiden: after 6 h; for maximale Konzentrationen, nur AZT erfaßt: after 24 h, without alkaline phosphatase; for Substanzspiegel an phosphoryliertem AZT: comparison before/after alkaline phosphatase
Source text: Die Bestimmung der intrazellulären Konzentrationen an AZT und AZT-Nukleotiden in Thymidikinasedefizienten Zellen sollte weitere Erkenntnisse über die intrazelluläre Spaltung der Testsubstanz AZT-DMDOPE liefern. Intrazelluläres AZT kann in diesen Zellen aufgrund eines Mangels an Thymidin-Kinase (TK) nicht in ATZ-MP und somit in das therapeutisch wirksame AZT-TP überführt werden. Die Bestimmung der intrazellulären Konzentrationen an AZT und AZT-Nukleotiden nach Inkubation mit AZT-DMDOPE könnte somit einen weiteren Hinweis auf die Spaltung der Teststubstanz geben.
Hierfür wurden in Gewebekulturschalen (60 x 15 mm) 1 x 10^7 Zellen in RPMI 1640 Komplettmedium I mit 0.03 bzw. 0.3 µg AZT/ml und 1 bzw. 10 µg AZT-DMDOPE/ml über 6, 24 und 48 h inkubiert. Nach Extraktion von AZT und der AZT-Nukleotide und einer Behandlung mit alkalischer Phosphatase wurde die Konzentration an AZT mit Hilfe des Radioimmuno-Assays bestimmt.

[3] = system: Zellhomogenate humaner PBL; test: Enzymatic cleavage of [14C]-AZT-DMDOPE by cell homogenates, TLC of metabolites; assay type: in vitro ADME, human
Method: as §1
Letztere wurden sowohl nach Stimulation mit PHA-M als auch in nichtstimuliertem Zustand direkt nach ihrer Isolierung homogenisiert und im Enzym-Assay eingesetzt.
as §2, §3, §4
Die Ansätze wurden für 1, 3, 6 und 24 h im Wasserbad bei 37 °C inkubiert. Als Vergleich wurde ein Ansatz ohne Zugabe von Zellhomogenat mitgeführt. Anschließend wurden die Spaltprodukte mit Diethylether:2-Propanol (9:1, v/v) extrahiert und dünnschichtchromatographisch im IBA- und IBAE-System analysiert (Abb. 18). […]

[4] = system: stimulierten humanen PBL; test: Intracellular decay kinetics of AZT and AZT nucleotides after removal of the incubation solution; assay type: in vitro ADME, human
Method: Stimulierte humane PBL wurden für 24 h mit 0.3 µg AZT/ml bzw. 10 µg AZT-DMDOPE/ml inkubiert. Anschließend wurden 1 x 10^7 Zellen in Gewebekulturflaschen (50 ml/25 cm^2) mit RPMI 1640 Komplettmedium I überführt. Nach 1, 3, 6, 24 und 48 h wurde AZT und die AZT-Nukleotide aus der zellulären Matrix extrahiert. Nach einer Behandlung mit alkalischer Phosphatase wurde mit Hilfe des Radioimmuno-Assays die Konzentration an AZT bestimmt.

[5] = system: nichtstimulierten humanen PBL; test: Intracellular concentrations of AZT and AZT nucleotides (radioimmunoassay) in non-stimulated human PBL; assay type: in vitro ADME
Source text: AZT wurden humane PBL aus "Buffy coat" isoliert.

CCCCCCCCCCCCSCC(COP(=O)(O)OC[C@H]1O[C@@H](n2cc(C)c(=O)[nH]c2=O)C[C@@H]1N=[N+]=[N-])OCCCCCCCCCC (some centres unmarked) [AZT-DMDOPE, (3'-Desoxy-3'-azidothymidin)-5'-phosphorsäure-(3-dodecyl-mercapto-2-decyloxy)-propylester]
Metabolisierung von AZT-DMDOPE [1]: zu DMDOP und AZT-MP metabolisiert | maximale Konzentrationen an AZT und AZT-Nukleotiden ([2]; 1 µg AZT-DMDOPE/ml): 0.55 ng/10^6 Zellen | maximale Konzentrationen, nur AZT erfaßt ([2]; 1 µg AZT-DMDOPE/ml): 0.05 ng/mL | Substanzspiegel an phosphoryliertem AZT ([2]; 1 µg AZT-DMDOPE/ml): 0.48 ng/10^6 Zellen | maximale Konzentrationen an AZT und AZT-Nukleotiden ([2]; 10 µg AZT-DMDOPE/ml): 4.40 ng/10^6 Zellen | maximale Konzentrationen, nur AZT erfaßt ([2]; 10 µg AZT-DMDOPE/ml): 1.10 ng/mL | Substanzspiegel an phosphoryliertem AZT ([2]; 10 µg AZT-DMDOPE/ml): 2.42 ng/10^6 Zellen | intrazelluläre Konzentrationen an AZT und AZT-Nukleotiden im Vergleich zu äquipotenten Konzentrationen an AZT ([2]; 6, 24 and 48 h incubation): deutlich höher | Metabolisierung von AZT-DMDOPE [3]: zu DMDOP und AZT-MP metabolisiert | um Faktor höhere Konzentration an phosphoryliertem AZT im Vergleich zu äquipotenter Konzentration an AZT ([4]; 10 µg AZT-DMDOPE/ml vs. 0.3 µg AZT/ml): 4.5 | konstanter Wert der intrazellulären Konzentrationen an AZT und AZT-Nukleotiden ([4]; 24 h preincubation with 10 µg AZT-DMDOPE/ml, reached after 3 h, constant over 48 h): 1.80 ng/10^6 Zellen | maximale intrazelluläre Konzentrationen an AZT und AZT-Nukleotiden ([5]; 1 µg AZT-DMDOPE/ml): 0.62 ng/10^6 Zellen | maximale intrazelluläre Konzentrationen an AZT und AZT-Nukleotiden ([5]; 10 µg AZT-DMDOPE/ml): 4.74 ng/10^6 Zellen | intrazelluläre Konzentrationen an AZT und AZT-Nukleotiden im Vergleich zur äquipotenten Konzentration an AZT ([5]; whole incubation time): größer
